What all share (assay): cell-based
Experiment [1] concerns the target T1, human AR (Homo sapiens, UniProt P10275).
T1 construct: expressed in transfected cells; host or cells: CV-1 cells (African green monkey kidney fibroblasts), transient calcium phosphate transfection
T1 sequence (P10275 1-920): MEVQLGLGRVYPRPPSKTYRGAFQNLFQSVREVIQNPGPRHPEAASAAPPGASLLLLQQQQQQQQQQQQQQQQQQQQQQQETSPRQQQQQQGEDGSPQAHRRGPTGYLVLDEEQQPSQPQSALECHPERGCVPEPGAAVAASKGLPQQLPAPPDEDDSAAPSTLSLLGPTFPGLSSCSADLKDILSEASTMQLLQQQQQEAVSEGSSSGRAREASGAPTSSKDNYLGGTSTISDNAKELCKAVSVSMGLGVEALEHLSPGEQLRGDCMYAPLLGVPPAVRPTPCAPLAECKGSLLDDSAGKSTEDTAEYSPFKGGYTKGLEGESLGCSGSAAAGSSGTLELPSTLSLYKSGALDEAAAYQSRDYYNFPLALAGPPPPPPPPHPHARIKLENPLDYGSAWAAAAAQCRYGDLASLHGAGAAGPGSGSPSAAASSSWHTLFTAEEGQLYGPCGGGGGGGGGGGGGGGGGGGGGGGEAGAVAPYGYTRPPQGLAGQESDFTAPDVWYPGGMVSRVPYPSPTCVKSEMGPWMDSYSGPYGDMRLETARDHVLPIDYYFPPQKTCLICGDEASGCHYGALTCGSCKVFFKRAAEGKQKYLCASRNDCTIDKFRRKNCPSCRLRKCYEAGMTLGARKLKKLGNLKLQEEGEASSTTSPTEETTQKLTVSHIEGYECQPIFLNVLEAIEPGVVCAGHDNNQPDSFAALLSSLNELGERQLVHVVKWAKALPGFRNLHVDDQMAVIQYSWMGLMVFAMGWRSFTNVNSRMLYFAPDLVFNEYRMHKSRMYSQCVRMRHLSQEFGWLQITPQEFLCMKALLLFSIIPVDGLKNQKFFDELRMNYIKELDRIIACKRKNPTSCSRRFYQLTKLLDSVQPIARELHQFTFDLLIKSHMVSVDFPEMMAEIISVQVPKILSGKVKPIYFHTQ
The experiment is classed as cell-based. An excerpt: The co-transfection assay provides a method for identifying functional agonists and partial agonists which mimic, or antagonists which inhibit, the effect of native hormones, and quantifying their activity for responsive IR proteins. In this regard, the co-transfection assay mimics an in vivo system in the laboratory. Importantly, activity in the co-transfection assay correlates very well with known in vivo activity, such that the co-transfection assay functions as a qualitative and quantitative predictor of a tested compounds in vivo pharmacology. See, e.g., T. Berger et al. 41 J. Steroid Biochem. Molec.
CV-1 cells (African green monkey kidney fibroblasts) were cultured in the presence of Dulbecco's Modified Eagle Medium (DMEM) supplemented with 10% charcoal resinstripped fetal bovine serum then transferred to 96-well microtiter plates one day prior to transfection.
The reporter plasmid, MTV-LUC, contains the cDNA for firefly luciferase (LUC) under control of the mouse mammary tumor virus (MTV) long terminal repeat, a conditional promoter containing an androgen response element. See e.g, Berger et al. supra. In addition, pRS-β-Gal, coding for constitutive expression of E. colβ-galactosidase (β-Gal), was included as an internal control for evaluation of transfection efficiency and compound toxicity.
Three to four replicates were used for each sample.
After 40 hours, the cells were washed with PBS, lysed with a Triton X-100-based buffer and assayed for LUC and β-Gal activities using a luminometer or spectrophotometer, respectively. For each replicate, the normalized response (NR) was calculated as: LUC response/β-Gal rate where β-Gal rate = β-Gal•1x10^-5/β-Gal incubation time.

Another experiment deals with T2, PR (Homo sapiens, UniProt P06401).
T2 sequence (P06401 1-933): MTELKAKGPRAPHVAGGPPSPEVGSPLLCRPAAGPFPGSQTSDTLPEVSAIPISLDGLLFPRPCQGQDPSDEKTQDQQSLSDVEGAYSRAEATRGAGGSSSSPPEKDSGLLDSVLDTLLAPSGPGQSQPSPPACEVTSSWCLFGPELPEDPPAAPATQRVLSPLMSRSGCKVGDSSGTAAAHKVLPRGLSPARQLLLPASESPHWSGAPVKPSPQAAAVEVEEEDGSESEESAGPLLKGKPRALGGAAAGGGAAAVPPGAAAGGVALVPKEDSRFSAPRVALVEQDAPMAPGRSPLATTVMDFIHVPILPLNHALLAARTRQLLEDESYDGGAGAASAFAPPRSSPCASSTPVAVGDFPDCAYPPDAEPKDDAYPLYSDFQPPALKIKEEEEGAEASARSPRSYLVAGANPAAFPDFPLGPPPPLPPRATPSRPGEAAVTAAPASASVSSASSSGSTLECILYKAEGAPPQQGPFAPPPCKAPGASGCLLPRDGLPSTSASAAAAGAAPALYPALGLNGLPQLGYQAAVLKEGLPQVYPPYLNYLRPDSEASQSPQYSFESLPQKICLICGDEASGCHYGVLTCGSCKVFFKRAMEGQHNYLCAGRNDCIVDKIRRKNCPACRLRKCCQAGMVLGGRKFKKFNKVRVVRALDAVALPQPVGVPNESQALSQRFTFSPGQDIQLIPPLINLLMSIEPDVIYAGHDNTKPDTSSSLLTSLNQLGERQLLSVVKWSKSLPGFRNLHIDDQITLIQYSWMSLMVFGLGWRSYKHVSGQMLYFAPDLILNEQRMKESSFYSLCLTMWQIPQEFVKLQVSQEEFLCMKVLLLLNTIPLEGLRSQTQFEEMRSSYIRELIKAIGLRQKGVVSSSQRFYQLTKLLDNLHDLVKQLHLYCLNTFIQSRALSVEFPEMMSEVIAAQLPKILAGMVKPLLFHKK

Experiment [2] addresses T1, human AR. Format: binding.

Read-outs that look alike come from different tables or passages of the source.

The results in this text go back to patent publication EP0918774B9, “ANDROGEN RECEPTOR MODULATOR COMPOUNDS AND METHODS” (LIGAND PHARMACEUTICALS INCORPORATED, priority 1996, dated 1997).

What is called IC50 is the concentration at which inhibition is half-maximal. A high value points to weaker potency in that assay. Usually Ki stands for the equilibrium dissociation constant of an inhibitor or competing ligand from its target.

Take `CC12CCCN1c1cc3nc(O)cc(C(F)(F)F)c3cc1CC2` (racemic) [Compound 101, (R/S)-6,7,7a,11-Tetrahydro-7a-methyl-4-trifluoromethyl-2-pyridono[5,6-g]pyrrolidino[1,2-a]quinoline]: on human AR [1], the “AR Agonist CV-1 Cells Efficacy (%)” value is “na (key: na: not active (i.e. efficacy of <20 and potency of >10,000))”; the “AR Antagonist CV-1 Cells Efficacy (%)” value is 80%; the EC50 was over 10 µM; half-maximal inhibition (IC50) required 0.362 µM. For the same compound, the EC50 on human AR [1] (read-out: AR Potency Agon) is over 10 µM. For the same compound, at PR, the IC50 is over 10 µM. The Ki on human AR [2] (read-out: AR Binding Ki) came to 0.169 µM.
`CC12CCCN1c1cc3[nH]c(=O)c(F)c(C(F)(F)F)c3cc1CC2` (racemic) [Compound 102, (R/S)-3-Fluoro-6,7,7a,11-tetrahydro-7a-methyl-4-trifluoromethyl-2-pyridono[5,6-g]pyrrolidino[1,2-a]quinoline]: at human AR [1], the EC50 is over 10 µM and half-maximal inhibition (IC50) was put at 0.029 µM. The “AR Antagonist CV-1 Cells Efficacy (%)” value on human AR [1] (% of maximal inhibition, fixed DHT at EC50, na = not active) stood at 86%. Besides, the “AR Agonist CV-1 Cells Efficacy (%)” value on human AR [1] (percent maximal response relative to reference agonist DHT, na = not active) is “na (not active (i.e. efficacy of <20 and potency of >10,000))”. Besides, the EC50 at human AR [1] (read-out: AR Potency Agon, Table 2, na = not active) is over 10 µM. At human AR [2], the Ki amounted to 0.078 µM.
